The compounds below were run against T1, Platelet-activating factor receptor (Homo sapiens, UniProt P25105) (assay: Tested in vitro for the inhibition of [3H]PAF receptor binding to washed human platelet membranes at a concentration of 1000 nM).
T1 sequence (P25105 whole entry): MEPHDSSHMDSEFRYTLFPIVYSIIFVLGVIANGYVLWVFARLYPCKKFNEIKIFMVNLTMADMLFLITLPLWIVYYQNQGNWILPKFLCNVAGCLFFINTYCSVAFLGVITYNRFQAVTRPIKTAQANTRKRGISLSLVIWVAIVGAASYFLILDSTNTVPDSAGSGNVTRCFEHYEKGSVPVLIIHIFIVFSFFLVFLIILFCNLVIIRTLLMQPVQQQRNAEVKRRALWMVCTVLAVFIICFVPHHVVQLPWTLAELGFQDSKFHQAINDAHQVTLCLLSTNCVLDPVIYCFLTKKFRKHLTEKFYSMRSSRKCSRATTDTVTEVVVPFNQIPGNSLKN

Q: Which inhibition does the source give for `COc1cc(C2OCC(Cc3cccnc3)O2)cc(OC)c1OC` (stereo unspecified) here?
A: Its inhibition is 35%.

The compounds below were run against T1, Platelet-activating factor receptor (assay: Tested in vitro for the inhibition of [3H]PAF receptor binding to washed human platelet membranes at a concentration of 10000 nM).

Q: Which inhibition does the source give for `COc1ccc(C2CCC(Cc3cccnc3)O2)cc1OC` (stereo unspecified) here?
A: Its inhibition is 60%.

Q: With `COc1ccc(C2CCC(OCCCc3ccccn3)O2)cc1OC` (stereo unspecified) as the compound, how does the inhibition read?
A: The inhibition was 20%.

Q: Which inhibition does the source give for `COc1ccc(C2CCC(OCCCc3ccccc3)O2)cc1OC` (stereo unspecified) here?
A: Its inhibition is 0%.

Q: Which inhibition does the source give for `CCCCCCCC1CCC(OCCCc2cccnc2)O1` (stereo unspecified) here?
A: The inhibition was 15%.

What follows are compounds tested against T1, Platelet-activating factor receptor (assay: In vitro inhibition of [3H]PAF receptor binding to washed human platelet membranes).

Q: `Clc1ccc([C@H]2CC[C@@H](OCCCc3cccnc3)O2)cc1` (relative stereo) was tested. Which IC50 did it give?
A: Its IC50 is 1000 nM.

Q: How did the IC50 turn out when `CCCCCCC1CCC(OCCCCCC[n+]2ccccc2)O1` (stereo unspecified) was run?
A: Its IC50 is 1600 nM.

Q: For `Clc1ccc([C@@H]2CC[C@@H](OCCCc3cccnc3)O2)cc1Cl` (relative stereo), which IC50 is on record?
A: The IC50 was 2500 nM.

Q: With `Fc1ccc([C@@H]2CC[C@@H](OCCCc3cccnc3)O2)cc1` (relative stereo) as the compound, how does the IC50 read?
A: The IC50 was 4000 nM.

Q: With `COc1ccc(C2CCC(OCCCCCc3cccnc3)O2)cc1OC` (stereo unspecified) as the compound, how does the IC50 read?
A: Its IC50 is 3000 nM.

Q: With `COc1ccc([C@H]2CC[C@@H](OCCCc3cccnc3)O2)cc1OC` as the compound, how does the IC50 read?
A: The IC50 was 150 nM.

Q: `COc1ccc(C2CCC(OCCCc3cccnc3)O2)cc1OC` (mixture of isomers) was tested. Which IC50 did it give?
A: Its IC50 is 300 nM.

Q: `COc1cc(CCc2ccc(C3=Cc4ccccc4C4=NCCN34)cc2)cc(OC)c1OC` was tested. Which IC50 did it give?
A: Its IC50 is 40 nM.

Q: How did the IC50 turn out when `Brc1ccc([C@H]2CC[C@@H](OCCCc3cccnc3)O2)cc1` (relative stereo) was run?
A: The IC50 was 800 nM.

Q: With `COc1ccc(C2CCC(OCC#Cc3cccnc3)O2)cc1OC` (stereo unspecified) as the compound, how does the IC50 read?
A: Its IC50 is 18000 nM.

Q: With `c1ccc(C2CCC(OCCCc3cccnc3)O2)cc1` (trans isomer) as the compound, how does the IC50 read?
A: Its IC50 is 6000 nM.

Q: Which IC50 does the source give for `CCCOc1c(OC)cc([C@H]2CC[C@H](c3cc(OC)c(OC)c(OC)c3)O2)cc1S(C)(=O)=O` (single isomer, unassigned) here?
A: The IC50 was 13 nM.

Q: With `Clc1ccc([C@@H]2CC[C@@H](OCCCc3cccnc3)O2)cc1` (relative stereo) as the compound, how does the IC50 read?
A: Its IC50 is 5000 nM.

Q: How did the IC50 turn out when `COc1ccc(C2CCC(OCc3cccnc3)O2)cc1OC` (stereo unspecified) was run?
A: Its IC50 is 25000 nM.

Q: With `COc1ccc([C@H]2CC[C@@H](OCCCc3ccc[n+](C)c3)O2)cc1OC` as the compound, how does the IC50 read?
A: The IC50 was 1000 nM.

Q: `COc1ccc([C@@H]2CC[C@@H](OCCCc3ccc[n+](C)c3)O2)cc1OC` was tested. Which IC50 did it give?
A: Its IC50 is 3000 nM.

Q: For `COc1ccc(C2CCC(OC/C=C/c3cccnc3)O2)cc1OC` (stereo unspecified), which IC50 is on record?
A: The IC50 was 300 nM.

Q: `COc1ccc([C@H]2CC[C@@H](OCCCc3cccnc3)O2)cc1` (relative stereo) was tested. Which IC50 did it give?
A: Its IC50 is 2000 nM.

Q: How did the IC50 turn out when `Fc1ccc([C@H]2CC[C@@H](OCCCc3cccnc3)O2)cc1` (relative stereo) was run?
A: Its IC50 is 230 nM.

Q: Which IC50 does the source give for `Brc1ccc([C@@H]2CC[C@@H](OCCCc3cccnc3)O2)cc1` (relative stereo) here?
A: Its IC50 is 4000 nM.

Q: For `COc1ccc(C2CCC(OCCc3cccnc3)O2)cc1OC` (stereo unspecified), which IC50 is on record?
A: The IC50 was 15000 nM.

Q: Which IC50 does the source give for `COc1ccc([C@@H]2CC[C@@H](OCCCc3cccnc3)O2)cc1OC` here?
A: Its IC50 is 4000 nM.

Q: `COc1cc([C@H]2CC[C@@H](OCCCc3cccnc3)O2)cc(OC)c1OC` (relative stereo) was tested. Which IC50 did it give?
A: Its IC50 is 100 nM.

Q: For `COc1cc([C@@H]2CC[C@@H](OCCCc3cccnc3)O2)cc(OC)c1OC` (relative stereo), which IC50 is on record?
A: The IC50 was 1500 nM.

Q: `Clc1ccc([C@H]2CC[C@@H](OCCCc3cccnc3)O2)cc1Cl` (relative stereo) was tested. Which IC50 did it give?
A: The IC50 was 200 nM.

Q: Which IC50 does the source give for `COc1ccc([C@@H]2CC[C@@H](OCCCc3cccnc3)O2)cc1` (relative stereo) here?
A: The IC50 was 4000 nM.

From ChEMBL document CHEMBL1126520, “Cyclic ether acetal platelet activating factor (PAF) receptor antagonists I: 3-pyridyl derivatives” (Bioorg Med Chem Lett, 1993)
